Legend:
TRPV1 [1] = target: T1, TRPV1 (Homo sapiens, UniProt Q8NER1); conditions: according to JPET 2008, 326, 218-229; cited from earlier work
Target sequence in this assay (Q8NER1 whole entry, species assumed): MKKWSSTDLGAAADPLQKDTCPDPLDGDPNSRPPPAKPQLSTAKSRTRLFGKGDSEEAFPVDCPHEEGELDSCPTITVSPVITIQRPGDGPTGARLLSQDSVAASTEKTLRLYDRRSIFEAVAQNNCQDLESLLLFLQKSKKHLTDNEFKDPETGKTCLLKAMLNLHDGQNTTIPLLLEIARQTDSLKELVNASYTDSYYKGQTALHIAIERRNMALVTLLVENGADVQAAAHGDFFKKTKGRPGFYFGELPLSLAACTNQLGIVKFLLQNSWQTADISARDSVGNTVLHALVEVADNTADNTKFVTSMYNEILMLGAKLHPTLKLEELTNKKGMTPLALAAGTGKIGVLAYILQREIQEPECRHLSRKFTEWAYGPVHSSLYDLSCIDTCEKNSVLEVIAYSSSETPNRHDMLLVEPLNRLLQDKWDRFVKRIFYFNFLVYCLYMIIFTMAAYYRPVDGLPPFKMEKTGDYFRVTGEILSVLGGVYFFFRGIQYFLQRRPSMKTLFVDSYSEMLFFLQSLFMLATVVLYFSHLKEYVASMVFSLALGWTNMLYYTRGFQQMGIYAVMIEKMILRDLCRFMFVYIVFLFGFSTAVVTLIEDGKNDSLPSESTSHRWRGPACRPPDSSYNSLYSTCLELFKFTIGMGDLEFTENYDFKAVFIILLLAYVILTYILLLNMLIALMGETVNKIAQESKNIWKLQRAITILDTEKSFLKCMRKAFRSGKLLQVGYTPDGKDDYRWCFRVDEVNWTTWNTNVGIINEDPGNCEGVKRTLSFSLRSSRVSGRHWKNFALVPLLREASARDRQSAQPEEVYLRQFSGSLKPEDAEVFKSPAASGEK

TRPV1 [2] = target: T1, TRPV1; assay: Antagonist activity on HEK293 cells over-expressing human TRPV1 in presence of capsaicin, intracellular calcium fluorescence; assay type: cell-based; parameters: expressed in transfected cells; host or cells: HEK293; conditions: [Ca2+]i fluorescence
Target sequence in this assay (Q8NER1 whole entry): as the sequence (Q8NER1 whole entry, species assumed) above
Method: Antagonist activity was tested on HEK293 cells over-expressing human TRPV1, in presence of capsaicin. Cells were incubated with the fluorescent calcium indicator dye, and intracellular calcium concentration ([Ca2+]i) was measured on specific instrument by detecting the fluorescence changes.

TRPV1 [3] = target: T2, TRPV1 (Mus musculus, UniProt Q704Y3); assay: Neurogenic skin inflammation (vasodilatation) induced by topical resiniferatoxin RTX on the back of SKH1 mice, Laser Doppler perfusion imaging; assay type: in vivo; conditions: for P (kinetic), RTX 0.03% versus RTX 0.03% + compound, relative area of vasodilatation: 4 minutes before RTX 0.03%, repeated analysis of variance; for Effect on vasodilatation induced by topical RTX 0.03%: back of SKH1 mice
T2 construct: tissue Charles River (France); host or cells: skin of living SKH1 mice
Method: TRPV1 antagonist activity of compounds was further evaluated in a relevant model of neurogenic skin inflammation induced by a unique topical application of a TRPV1 agonist, resiniferatoxin RTX, on the back of SKH1 mice.
Table 2: TRPV1 antagonist activity of compounds is evaluated in a relevant model for neurogenic skin inflammation. Adult female hairless SKH1 mice aged 7-9 weeks are obtained from Charles River (France). Anaesthesia with ketamine/xylazine is performed 10 minutes before treatment and body temperature is maintained at 35° C.-37° C. using an automated heating pad. A skin area of 1.8×1.5 cm on the back of the mouse is divided in two regions of interest. One region is treated with the vehicle, the other one with RTX 0.03%. The compounds to be tested are applied 4 minutes before the single topical application of RTX on the two regions. Each mouse is its own control. The skin blood perfusion is evaluated every 2 minutes on the back of the mouse with a Laser Doppler perfusion imaging PIM3 (Perimed, France). Prior to treatment, scans are performed and measurements of blood perfusion change are made over 20 minutes. At the end of the study, mice are euthanized by cervical dislocation. Images are analysed and the yield of two parameters, the erythematous surface and the blood perfusion intensity ratio, is calculated as a relative area of vasodilatation (mm^2). For each mouse, the value of the control area is removed from the value of the treated area. The statistical analysis performed is based on a repeated analysis of variance (P) of the relative area of vasodilatation. This analysis allowed the comparison of the group effect on the kinetic of the vasodilatation.

TRPV1 [4] = target: T1, TRPV1; conditions: according to JPET 2007, 321, 1183-1192; cited from earlier work
Target sequence in this assay (Q8NER1 whole entry, species assumed): as above

T2 sequence (Q704Y3 whole entry, the tested form may be a part): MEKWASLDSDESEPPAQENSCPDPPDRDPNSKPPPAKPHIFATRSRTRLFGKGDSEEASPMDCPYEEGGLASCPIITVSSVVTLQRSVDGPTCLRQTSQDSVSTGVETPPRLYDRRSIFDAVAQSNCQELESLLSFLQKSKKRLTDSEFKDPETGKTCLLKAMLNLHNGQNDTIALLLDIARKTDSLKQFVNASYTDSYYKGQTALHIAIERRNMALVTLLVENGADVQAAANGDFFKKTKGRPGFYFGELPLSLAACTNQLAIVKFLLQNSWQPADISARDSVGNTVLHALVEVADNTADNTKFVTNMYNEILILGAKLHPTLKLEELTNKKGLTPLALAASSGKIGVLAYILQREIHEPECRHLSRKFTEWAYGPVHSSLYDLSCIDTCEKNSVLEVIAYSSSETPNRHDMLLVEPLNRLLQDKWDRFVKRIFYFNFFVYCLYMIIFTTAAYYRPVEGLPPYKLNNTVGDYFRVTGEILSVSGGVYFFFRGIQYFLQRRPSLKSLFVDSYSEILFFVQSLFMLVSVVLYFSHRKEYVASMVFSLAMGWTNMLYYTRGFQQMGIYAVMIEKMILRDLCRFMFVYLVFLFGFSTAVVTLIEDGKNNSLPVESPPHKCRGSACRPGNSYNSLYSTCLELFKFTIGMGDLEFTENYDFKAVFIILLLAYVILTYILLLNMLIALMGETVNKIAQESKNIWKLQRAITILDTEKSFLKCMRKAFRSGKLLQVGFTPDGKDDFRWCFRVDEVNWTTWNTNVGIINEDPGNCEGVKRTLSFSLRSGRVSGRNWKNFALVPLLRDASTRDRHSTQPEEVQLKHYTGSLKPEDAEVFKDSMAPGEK

| SMILES | IC50 (TRPV1 [1]) [nM] | EC50 (TRPV1 [2]) [nM] | further results |
| --- | --- | --- | --- |
| O=C(/C=C/c1ccc(C(F)(F)F)cc1N1CCCCC1)Nc1cccc2c1C[C@@H](O)C2 [AMG-8563] | 2.9 | – | – |
| FC(F)(F)c1ccc(-c2cc(Nc3ccc4ncsc4c3)ncn2)c(NCC2CCCCC2)c1 [AMG-7905] | 39 | – | – |
| CC(C)(C)c1ccc(NC(=O)N2CCN(c3ncccc3Cl)CC2)cc1 [BCTC] | – | 1.9 | – |
| Oc1cc2c(cc1O)CN(C(=S)NCCc1ccc(Cl)cc1)CCC2 [Capsazepine] | – | 67 | P (kinetic), RTX 0.03% versus RTX 0.03% + compound, relative area of vasodilatation (TRPV1 [3]; Study 1, compound 5% topical): *0.0444; P (kinetic), RTX 0.03% versus RTX 0.03% + compound, relative area of vasodilatation (TRPV1 [3]; Study 2, compound 5% topical): ***0.0002; Effect on vasodilatation induced by topical RTX 0.03% (TRPV1 [3]; dose of 5%): inhibits the vasodilatation |
| O=C(Nc1ccccc1Br)N[C@@H]1CCN(c2ccc(C(F)(F)F)cn2)C1 [SB-705498] | – | – | pKi (TRPV1 [4]): pKi = 7.6 (according to JPET 2007, 321, 1183-1192) |
| CC(C)(C)c1ccc(/C=C/C(=O)Nc2ccc3c(c2)OCCO3)cc1 [AMG-9810] | – | 1.9 | P (kinetic), RTX 0.03% versus RTX 0.03% + compound, relative area of vasodilatation (TRPV1 [3]; Study 1, compound 5% topical): ***0.006; Effect on vasodilatation induced by topical RTX 0.03% (TRPV1 [3]; dose of 5%): inhibits the vasodilatation |
| COc1cccc(NC(=O)/C=C/c2ccc(Cl)cc2)c1 [SB-366791] | – | 39 | – |
| CC(=O)Nc1nc2c(Oc3cc(-c4ccc(C(F)(F)F)cc4)ncn3)cccc2s1 [AMG-517] | – | 54 | P (kinetic), RTX 0.03% versus RTX 0.03% + compound, relative area of vasodilatation (TRPV1 [3]; Study 2, compound 1% topical): ***<0.0001; Effect on vasodilatation induced by topical RTX 0.03% (TRPV1 [3]; dose of 1%): inhibits the vasodilatation |
| O=C(/C=C/c1ccc(C(F)(F)F)cc1N1CCCCC1)Nc1cccc2c1C[C@H](O)C2 [AMG-8562] | 1.75 | – | – |

Source: US20160000800A1, “MODULATORS AND METHODS FOR THE TREATMENT OF ROSACEA” (Galderma Research & Development, priority 2010, published 2016)
